From ChEMBL document CHEMBL3856217, “A series of pyrido[2,3-b]pyrazin-3(4H)-one derivatives as aldose reductase inhibitors with antioxidant activity” (Eur J Med Chem, 2016)

Experiments:
[1] = Inhibition of rat lens ALR2 using D,L-glyceraldehyde as substrate preincubated for 10 mins followed by substrate addition measured for 5 mins
[2] = Antioxidant activity assessed as DPPH free radical scavenging activity at 100 uM after 30 mins by UV-spectrophotometric method relative to control; format: functional
[3] = Antioxidant activity assessed as DPPH free radical scavenging activity at 50 uM after 30 mins by UV-spectrophotometric method relative to control; format: functional
[4] = Antioxidant activity assessed as DPPH free radical scavenging activity at 10 uM after 30 mins by UV-spectrophotometric method relative to control; format: functional

IC50 [1] [nM]	Structure (SMILES)	Activity [2] [%]	Activity [3] [%]	Activity [4] [%]
68	O=C(O)Cn1c(=O)c(-c2c(O)cc(O)cc2O)nc2cccnc21	83.5	70.9	40.2
36	O=C(O)Cn1c(=O)c(/C=C/c2ccc(O)c(O)c2)nc2cc(Cl)cnc21	97.1	87.4	74.7
13	O=C(O)Cn1c(=O)c(/C=C/c2ccc(O)cc2)nc2cc(Cl)cnc21	66.2	47.5	
24	O=C(O)Cn1c(=O)c(-c2ccc(O)cc2O)nc2cc(Br)cnc21	43.5		
1030	O=C(O)Cn1c(=O)c(-c2ccc(O)cc2)nc2cccnc21	6.5		
389	COc1cc(/C=C/c2nc3cc(Br)cnc3n(CC(=O)O)c2=O)ccc1O	90.1	75.4	59.6
895	O=C(O)Cn1c(=O)c(/C=C/c2ccccc2)nc2cccnc21	78.9	64.1	35.5
578	COc1cc(-c2nc3cccnc3n(CC(=O)O)c2=O)cc(O)c1OC	20.5		
9940	O=C(O)Cn1c(=O)c(-c2ccccc2)nc2cccnc21			
5210	COc1cc(O)cc(-c2nc3cccnc3n(CC(=O)O)c2=O)c1			
185	O=C(O)Cn1c(=O)c(-c2ccc(O)cc2O)nc2cccnc21	37.7		
2210	COc1ccc(-c2nc3cccnc3n(CC(=O)O)c2=O)cc1O	32.1		
307	COc1cc(/C=C/c2nc3cccnc3n(CC(=O)O)c2=O)ccc1O	85.5	75.6	48.6
29	O=C(O)Cn1c(=O)c(/C=C/c2ccc(O)cc2)nc2cc(Br)cnc21	61.2	43.8	
108	O=C(O)Cn1c(=O)c(/C=C/c2ccc(O)c(O)c2)nc2cc(Br)cnc21	95.8	82.4	70.8
9	O=C(O)Cn1c(=O)c(-c2ccc(O)cc2O)nc2cc(Cl)cnc21	41.5		
689	COc1cc(CCc2nc3cccnc3n(CC(=O)O)c2=O)ccc1O	40.1	25.8	
1520	COc1ccc(/C=C/c2nc3cccnc3n(CC(=O)O)c2=O)cc1	52.8	39.1	
918	O=C(O)Cn1c(=O)c(CCc2ccc(O)cc2)nc2cccnc21	35.2		
319	COc1c(O)cc(-c2nc3cccnc3n(CC(=O)O)c2=O)cc1O	45.6		
179	O=C(O)Cn1c(=O)c(-c2cc(O)c(O)c(O)c2)nc2cccnc21	70.7	62.4	34.6
18	O=C(O)Cn1c(=O)c(-c2c(O)cc(O)cc2O)nc2cc(Cl)cnc21	85.2	69.8	41.3
87	COc1cc(/C=C/c2nc3cc(Cl)cnc3n(CC(=O)O)c2=O)ccc1O	94.9	81.8	62.3
126	O=C(O)Cn1c(=O)c(/C=C/c2ccc(F)cc2)nc2cccnc21	42.7		
35	O=C(O)Cn1c(=O)c(/C=C/c2ccc(O)cc2)nc2cccnc21	57.6	44.5	
831	O=C(O)Cn1c(=O)c(-c2ccc(O)c(O)c2)nc2cccnc21	50.5		
296	O=C(O)Cn1c(=O)c(-c2cc(O)cc(O)c2)nc2cccnc21	30.3		
165	O=C(O)Cn1c(=O)c(/C=C/c2ccc(O)c(O)c2)nc2cccnc21	89.1	78.4	55.1
	Cc1c(C)c2c(c(C)c1O)CCC(C)(C(=O)O)O2 (configuration not stated)	96.2	89.6	78.2
